Results taken from article PMC5518309 (ChemMedChem, 2014).
Numbered stars: 1 amine (or outer) side, 2 acyl side, 3 side chain; on linkers, the order of the positions; unused ones are H or OH. Side chains are listed from the residue outwards. Ends that are not written are not given here. Peptide text beside a SMILES is read from it. * marks the point of attachment. Arachidoyl = CCCCCCCCCCCCCCCCCCCC(=O)*; γGlu = O=C(O)[C@H](CCC(=O)[*:2])N[*:1]; Palmitoyl = CCCCCCCCCCCCCCCC(=O)*; Lauroyl = CCCCCCCCCCCC(=O)*; Propionyl = CCC(=O)*

How the values were obtained:
Assay type in all cases: cell-based
[1] = target: hY4R (Homo sapiens, UniProt P50391); assay: Inositol phosphate accumulation assay, hY4R; settings: for Emax: read-out: hY4R Emax
[2] = target: T1, hY1R (Homo sapiens, UniProt P25929); assay: Inositol phosphate accumulation assay, hY1R; settings: for Emax: read-out: hY1R Emax
T1 sequence (P25929 1-384): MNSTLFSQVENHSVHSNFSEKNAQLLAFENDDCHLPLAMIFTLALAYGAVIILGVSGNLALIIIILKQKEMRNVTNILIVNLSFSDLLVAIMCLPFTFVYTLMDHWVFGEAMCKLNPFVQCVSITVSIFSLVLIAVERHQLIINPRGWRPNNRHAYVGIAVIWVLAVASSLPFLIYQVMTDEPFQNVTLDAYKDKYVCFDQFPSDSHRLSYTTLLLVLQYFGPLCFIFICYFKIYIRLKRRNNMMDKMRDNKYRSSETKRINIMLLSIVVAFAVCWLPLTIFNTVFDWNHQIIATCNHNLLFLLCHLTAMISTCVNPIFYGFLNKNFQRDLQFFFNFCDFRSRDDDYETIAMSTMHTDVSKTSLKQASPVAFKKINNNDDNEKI

[3] = target: T2, hY5R (Homo sapiens, UniProt Q15761); assay: Inositol phosphate accumulation assay, hY5R; settings: for Emax: read-out: hY5R Emax
T2 sequence (Q15761 1-445): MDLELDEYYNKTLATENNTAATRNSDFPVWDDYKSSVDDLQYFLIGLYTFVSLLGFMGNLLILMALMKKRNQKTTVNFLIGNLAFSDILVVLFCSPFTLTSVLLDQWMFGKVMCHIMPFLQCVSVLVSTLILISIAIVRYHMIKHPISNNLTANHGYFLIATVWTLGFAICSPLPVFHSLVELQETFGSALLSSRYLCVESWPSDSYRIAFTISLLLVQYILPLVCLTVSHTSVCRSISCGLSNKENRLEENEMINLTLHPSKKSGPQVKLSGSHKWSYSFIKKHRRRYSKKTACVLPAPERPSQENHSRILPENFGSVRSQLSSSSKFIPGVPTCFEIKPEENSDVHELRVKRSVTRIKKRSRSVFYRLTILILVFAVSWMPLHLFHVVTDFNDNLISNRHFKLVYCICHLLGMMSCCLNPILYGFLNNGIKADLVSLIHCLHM

[4] = target: T3, hY2R (Homo sapiens, UniProt P49146); assay: Inositol phosphate accumulation assay, hY2R; settings: for Emax: read-out: hY2R Emax
T3 sequence (P49146 1-381): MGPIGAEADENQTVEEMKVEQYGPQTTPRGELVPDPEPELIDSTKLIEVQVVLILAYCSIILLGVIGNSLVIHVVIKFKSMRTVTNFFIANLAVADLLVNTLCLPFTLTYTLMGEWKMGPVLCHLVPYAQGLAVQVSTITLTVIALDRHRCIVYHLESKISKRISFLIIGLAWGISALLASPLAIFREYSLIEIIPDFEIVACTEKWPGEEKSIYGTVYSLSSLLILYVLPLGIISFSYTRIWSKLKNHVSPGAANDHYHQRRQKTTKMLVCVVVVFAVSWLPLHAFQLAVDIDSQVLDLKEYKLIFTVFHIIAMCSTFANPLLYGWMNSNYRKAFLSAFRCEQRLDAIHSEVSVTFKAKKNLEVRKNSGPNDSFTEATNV

hY4R, sequence (P50391 whole entry): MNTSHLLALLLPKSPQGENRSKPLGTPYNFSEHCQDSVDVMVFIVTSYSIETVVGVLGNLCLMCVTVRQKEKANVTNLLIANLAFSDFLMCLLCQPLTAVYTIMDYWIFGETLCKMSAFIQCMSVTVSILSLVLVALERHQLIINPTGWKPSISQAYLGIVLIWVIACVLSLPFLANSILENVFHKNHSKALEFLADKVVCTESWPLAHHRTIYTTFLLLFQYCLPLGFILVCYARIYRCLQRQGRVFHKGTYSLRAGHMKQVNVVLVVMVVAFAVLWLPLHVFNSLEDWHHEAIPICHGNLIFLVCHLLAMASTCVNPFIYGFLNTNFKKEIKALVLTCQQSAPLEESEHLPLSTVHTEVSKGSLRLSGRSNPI

Compound	EC50 [1]	Emax [1]	EC50 [2]	Emax [2]	EC50 [3]	Emax [3]	EC50 [4]	Emax [4]
CCC(=O)N[C@@H](CCC(=O)NCCCC[C@H](NC(=O)[C@H](CC(N)=O)NC(=O)[C@@H](NC(=O)[C@H](Cc1ccc(O)cc1)NC(=O)[C@H](CCCNC(=N)N)NC(=O)[C@H](CCCNC(=N)N)NC(=O)[C@H](CC(C)C)NC(=O)[C@H](CC(=O)O)NC(=O)[C@H](C)NC(=O)[C@H](C)NC(=O)[C@H](Cc1ccc(O)cc1)NC(=O)[C@H](CCC(N)=O)NC(=O)[C@H](C)NC(=O)[C@H](CCSC)NC(=O)[C@H](CCC(N)=O)NC(=O)[C@H](CCC(=O)O)NC(=O)[C@@H]1CCCN1C(=O)[C@@H](NC(=O)[C@H](C)NC(=O)[C@H](CC(N)=O)NC(=O)[C@H](CC(=O)O)NC(=O)CNC(=O)[C@@H]1CCCN1C(=O)[C@H](Cc1ccc(O)cc1)NC(=O)[C@@H](NC(=O)[C@@H]1CCCN1C(=O)[C@H](CCC(=O)O)NC(=O)[C@H](CC(C)C)NC(=O)[C@@H]1CCCN1)C(C)C)[C@@H](C)O)[C@@H](C)CC)C(=O)N[C@@H](CC(C)C)C(=O)N[C@H](C(=O)N[C@@H](CCCNC(=N)N)C(=O)N1CCC[C@H]1C(=O)N[C@@H](CCCNC(=N)N)C(=O)N[C@@H](Cc1ccc(O)cc1)C(N)=O)[C@@H](C)O)C(=O)O [15a, [K^30(E-Prop)]hPP2–36] (H-PLEPVYPGDNATPEQMAQYAADLRRYINK([γGlu-Propionyl])LTRPRY-NH2)	1.3 nM	88 ± 4%	> 1000 nM	99 ± 4%	937 nM	70 ± 3%	> 1000 nM	88 ± 6%
CCCCCCCCCCCCCCCCCCCC(=O)N[C@@H](CCC(=O)NCCCC[C@H](NC(=O)[C@H](CC(N)=O)NC(=O)[C@@H](NC(=O)[C@H](Cc1ccc(O)cc1)NC(=O)[C@H](CCCNC(=N)N)NC(=O)[C@H](CCCNC(=N)N)NC(=O)[C@H](CC(C)C)NC(=O)[C@H](CC(=O)O)NC(=O)[C@H](C)NC(=O)[C@H](C)NC(=O)[C@H](Cc1ccc(O)cc1)NC(=O)[C@H](CCC(N)=O)NC(=O)[C@H](C)NC(=O)[C@H](CCSC)NC(=O)[C@H](CCC(N)=O)NC(=O)[C@H](CCC(=O)O)NC(=O)[C@@H]1CCCN1C(=O)[C@@H](NC(=O)[C@H](C)NC(=O)[C@H](CC(N)=O)NC(=O)[C@H](CC(=O)O)NC(=O)CNC(=O)[C@@H]1CCCN1C(=O)[C@H](Cc1ccc(O)cc1)NC(=O)[C@@H](NC(=O)[C@@H]1CCCN1C(=O)[C@H](CCC(=O)O)NC(=O)[C@H](CC(C)C)NC(=O)[C@@H]1CCCN1)C(C)C)[C@@H](C)O)[C@@H](C)CC)C(=O)N[C@@H](CC(C)C)C(=O)N[C@H](C(=O)N[C@@H](CCCNC(=N)N)C(=O)N1CCC[C@H]1C(=O)N[C@@H](CCCNC(=N)N)C(=O)N[C@@H](Cc1ccc(O)cc1)C(N)=O)[C@@H](C)O)C(=O)O [compound 19, [K^30(E-Ara)]hPP2–36] (H-PLEPVYPGDNATPEQMAQYAADLRRYINK([γGlu-Arachidoyl])LTRPRY-NH2)	2.5 nM	84 ± 7%	25.1 nM	98 ± 4%	0.6 nM	69 ± 10%	4.9 nM	88 ± 5%
CCCCCCCCCCCC(=O)N[C@@H](CCC(=O)NCCCC[C@H](NC(=O)[C@H](C)NC(=O)[C@H](Cc1ccc(O)cc1)NC(=O)[C@H](CCC(N)=O)NC(=O)[C@H](C)NC(=O)[C@H](CCSC)NC(=O)[C@H](CCC(N)=O)NC(=O)[C@H](CCC(=O)O)NC(=O)[C@@H]1CCCN1C(=O)[C@@H](NC(=O)[C@H](C)NC(=O)[C@H](CC(N)=O)NC(=O)[C@H](CC(=O)O)NC(=O)CNC(=O)[C@@H]1CCCN1C(=O)[C@H](Cc1ccc(O)cc1)NC(=O)[C@@H](NC(=O)[C@@H]1CCCN1C(=O)[C@H](CCC(=O)O)NC(=O)[C@H](CC(C)C)NC(=O)[C@@H]1CCCN1)C(C)C)[C@@H](C)O)C(=O)N[C@@H](CC(=O)O)C(=O)N[C@@H](CC(C)C)C(=O)N[C@@H](CCCNC(=N)N)C(=O)N[C@@H](CCCNC(=N)N)C(=O)N[C@@H](Cc1ccc(O)cc1)C(=O)N[C@H](C(=O)N[C@@H](CC(N)=O)C(=O)N[C@@H](CCSC)C(=O)N[C@@H](CC(C)C)C(=O)N[C@H](C(=O)N[C@@H](CCCNC(=N)N)C(=O)N1CCC[C@H]1C(=O)N[C@@H](CCCNC(=N)N)C(=O)N[C@@H](Cc1ccc(O)cc1)C(N)=O)[C@@H](C)O)[C@@H](C)CC)C(=O)O [compound 11, [K^22(E-Laur)]hPP2–36] (H-PLEPVYPGDNATPEQMAQYAK([γGlu-Lauroyl])DLRRYINMLTRPRY-NH2)	1.5 nM	86 ± 5%	204 nM	87 ± 5%	14.9 nM	87 ± 5%	49.6 nM	101 ± 7%
CC[C@H](C)[C@H](NC(=O)[C@H](Cc1ccc(O)cc1)NC(=O)[C@H](CCCNC(=N)N)NC(=O)[C@H](CCCNC(=N)N)NC(=O)[C@H](CC(C)C)NC(=O)[C@H](CC(=O)O)NC(=O)[C@H](C)NC(=O)[C@H](C)NC(=O)[C@H](Cc1ccc(O)cc1)NC(=O)[C@H](CCC(N)=O)NC(=O)[C@H](C)NC(=O)[C@H](CCSC)NC(=O)[C@H](CCC(N)=O)NC(=O)[C@H](CCC(=O)O)NC(=O)[C@@H]1CCCN1C(=O)[C@@H](NC(=O)[C@H](C)NC(=O)[C@H](CC(N)=O)NC(=O)[C@H](CC(=O)O)NC(=O)CNC(=O)[C@@H]1CCCN1C(=O)[C@H](Cc1ccc(O)cc1)NC(=O)[C@@H](NC(=O)[C@@H]1CCCN1C(=O)[C@H](CCC(=O)O)NC(=O)[C@H](CC(C)C)NC(=O)[C@@H]1CCCN1C(=O)[C@H](C)N)C(C)C)[C@@H](C)O)C(=O)N[C@@H](CC(N)=O)C(=O)N[C@@H](CCSC)C(=O)N[C@@H](CC(C)C)C(=O)N[C@H](C(=O)N[C@@H](CCCNC(=N)N)C(=O)N1CCC[C@H]1C(=O)N[C@@H](CCCNC(=N)N)C(=O)N[C@@H](Cc1ccc(O)cc1)C(N)=O)[C@@H](C)O [1a, hPP, reference compound]	–	–	–	95 ± 3%	–	90 ± 5%	–	96 ± 5%
PLEPVYPGDNATPEQMAQYAADLRRYINKLTRPRY-NH2 [14a, [K^30]hPP2–36]	1.4 nM	95 ± 4%	> 1000 nM	93 ± 5%	23.9 nM	79 ± 4%	–	–
PLEPVYPGDNATPEQMAQYAKDLRRYINMLTRPRY-NH2 [compound 8, [K^22]hPP2–36]	1.9 nM	91 ± 3%	51.4 nM	101 ± 7%	6.1 nM	89 ± 5%	67.1 nM	107 ± 4%
CCCCCCCCCCCCCCCC(=O)N[C@@H](CCC(=O)NCCCC[C@H](NC(=O)[C@H](C)NC(=O)[C@H](Cc1ccc(O)cc1)NC(=O)[C@H](CCC(N)=O)NC(=O)[C@H](C)NC(=O)[C@H](CCSC)NC(=O)[C@H](CCC(N)=O)NC(=O)[C@H](CCC(=O)O)NC(=O)[C@@H]1CCCN1C(=O)[C@@H](NC(=O)[C@H](C)NC(=O)[C@H](CC(N)=O)NC(=O)[C@H](CC(=O)O)NC(=O)CNC(=O)[C@@H]1CCCN1C(=O)[C@H](Cc1ccc(O)cc1)NC(=O)[C@@H](NC(=O)[C@@H]1CCCN1C(=O)[C@H](CCC(=O)O)NC(=O)[C@H](CC(C)C)NC(=O)[C@@H]1CCCN1)C(C)C)[C@@H](C)O)C(=O)N[C@@H](CC(=O)O)C(=O)N[C@@H](CC(C)C)C(=O)N[C@@H](CCCNC(=N)N)C(=O)N[C@@H](CCCNC(=N)N)C(=O)N[C@@H](Cc1ccc(O)cc1)C(=O)N[C@H](C(=O)N[C@@H](CC(N)=O)C(=O)N[C@@H](CCSC)C(=O)N[C@@H](CC(C)C)C(=O)N[C@H](C(=O)N[C@@H](CCCNC(=N)N)C(=O)N1CCC[C@H]1C(=O)N[C@@H](CCCNC(=N)N)C(=O)N[C@@H](Cc1ccc(O)cc1)C(N)=O)[C@@H](C)O)[C@@H](C)CC)C(=O)O [compound 12, [K^22(E-Pam)]hPP2–36] (H-PLEPVYPGDNATPEQMAQYAK([γGlu-Palmitoyl])DLRRYINMLTRPRY-NH2)	1.5 nM	78 ± 4%	16.5 nM	93 ± 6%	1.9 nM	81 ± 6%	1.7 nM	103 ± 12%
